Measured values published in the supplement of paper PMC11061612.

Legend:
[1] = test system: OVTOKO (Ovarian Carcinoma); test: combination Emax (second highest fraction inhibited in the dose matrix, 72 h); higher = more inhibition; extreme values may be limits of the assay
How it was run: (§1)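 Cell lines in DMEM/F12 or RPMI with 10% FBS were plated in 1536-well plates, held 24 hours at 37°C, 5% CO2, then given two-drug dose matrices for 72 hours (DMSO typically 0.2%). Viability was read by CellTiter-Glo 2.0 luminescence and scaled as inhibition from 0 (vehicle wells) to 1 (blank wells). Combination Emax is the second-highest inhibition in the matrix; Bliss excess is observed combination effect minus expected EA + EB − EA·EB, EA and EB being single-agent effects.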

[2] = test system: NCI-H1155 (Non-Small Cell Lung Carcinoma); test: as above
How it was run: as §1

[3] = test system: Becker (Low Grade Glioma); test: Bliss excess, mean over the matrix (fraction); higher = more synergy
How it was run: as §1

[4] = test system: OVTOKO (Ovarian Carcinoma); test: as above
How it was run: as §1

[5] = test system: RT4 (Bladder Carcinoma); test: as above
How it was run: as §1

[6] = test system: NCI-H1563 (Lung Adenocarcinoma); test: as above
How it was run: as §1

[7] = test system: PC-14 (Lung Adenocarcinoma); test: as above
How it was run: as §1

[8] = test system: NCI-H196 (Small Cell Lung Carcinoma); test: as above
How it was run: as §1

[9] = test system: HTC-C3 (Thyroid Gland Carcinoma); test: as above
How it was run: as §1

[10] = test system: RL95-2 (Endometrial Carcinoma); test: as above
How it was run: as §1

[11] = test system: NCI-H810 (Non-Small Cell Lung Carcinoma); test: as above
How it was run: as §1

[12] = test system: AN3-CA (Endometrial Carcinoma); test: as above
How it was run: as §1

[13] = test system: COLO-684 (Endometrial Carcinoma); test: as above
How it was run: as §1

[14] = test system: RMG-I (Ovarian Carcinoma); test: as above
How it was run: as §1

[15] = test system: LOUCY (T-Lymphoblastic Leukemia); test: as above
How it was run: as §1

[16] = test system: KYM-1 (Rhabdomyosarcoma); test: as above
How it was run: as §1

[17] = test system: BALL-1 (B-Lymphoblastic Leukemia); test: as above
How it was run: as §1

[18] = test system: SK-MM-2 (Plasma Cell Myeloma); test: as above
How it was run: as §1

[19] = test system: SJRH30 (Rhabdomyosarcoma); test: as above
How it was run: as §1
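For Bliss excess, mean over the matrix in this document: after 72 h of two-drug dosing.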

Row | SMILES | combination Emax [1] | combination Emax [2] | Bliss excess [3] | Bliss excess [4] | Bliss excess [5] | Bliss excess [6] | Bliss excess [7] | Bliss excess [8] | Bliss excess [9] | Bliss excess [10] | Bliss excess [11] | Bliss excess [12] | Bliss excess [13] | Bliss excess [14] | Bliss excess [15] | Bliss excess [16] | Bliss excess [17] | Bliss excess [18] | Bliss excess [19]
1 | NC1(C(=O)N[C@@H](CCO)c2ccc(Cl)cc2)CCN(c2ncnc3[nH]ccc23)CC1 [Capivasertib] + COc1nnc2ccc(N3CCC(c4ccc(OCCN5CCN(C)C(=O)[C@H]5C)cc4)CC3)nn12 [AZD5153] (first compound max 10 µM, 7x7, partner max 1 µM) | 0.604 | 0.822 | 0.0414 | 0.0497 | -0.0021 | -0.0218 | 0.0461 | 0.0227 | 0.0265 | -0.002 | 0.0078 | 0.0778 | -0.0133 | -0.0448 | 0.0912 | -0.0306 | -0.0339 | -0.107 | 0.0117
2 | COc1nnc2ccc(N3CCC(c4ccc(OCCN5CCN(C)C(=O)[C@H]5C)cc4)CC3)nn12 [AZD5153] + CN(CC[C@H](CSC1=CC=CC=C1)NC2=C(C=C(C=C2)S(=O)(=O)NC(=O)C3=CC=C(C=C3)N4CCC(CC4)[C@H](C5=CC=CC=C5C6=CC=C(C=C6)Cl)O)S(=O)(=O)C(F)(F)F)CCO [AZD4320] (first compound max 1 µM, 7x7, partner max 1 µM) | 0.495 | 0.974 | – | 0.0926 | 0.0826 | 0.0003 | 0.0111 | 0.0277 | 0.0859 | 0.0571 | – | 0.0161 | – | – | – | – | -0.0008 | – | 0.0517
3 | NC1(C(=O)N[C@@H](CCO)c2ccc(Cl)cc2)CCN(c2ncnc3[nH]ccc23)CC1 [Capivasertib] + Cn1cnc2c(F)c(Nc3ccc(Br)cc3Cl)c(C(=O)NOCCO)cc21 [Selumetinib] (first compound max 10 µM, 7x7, partner max 10 µM) | 0.565 | 0.473 | 0.0788 | -0.0566 | -0.0196 | -0.119 | 0.0938 | -0.0436 | 0.0677 | 0.0367 | -0.014 | -0.0016 | -0.0343 | 0.0235 | 0.0806 | -0.0072 | 0.0317 | -0.0293 | 0.0297
4 | COc1nnc2ccc(N3CCC(c4ccc(OCCN5CCN(C)C(=O)[C@H]5C)cc4)CC3)nn12 [AZD5153] + C[C@@H]1COCCN1C2=NC(=NC(=C2)C3(CC3)[S@](=N)(=O)C)C4=C5C=CNC5=NC=C4 [AZD6738] (first compound max 1 µM, 7x7, partner max 10 µM) | 0.661 | 0.942 | 0.0137 | 0.0999 | 0.0449 | 0.0203 | 0.0294 | 0.036 | -0.0187 | 0.0017 | -0.0236 | -0.0311 | -0.0231 | -0.0261 | -0.0232 | -0.0398 | 0.0119 | -0.0831 | 0.0588
5 | CC(=O)c1c(C)c2cnc(Nc3ccc(N4CCNCC4)cn3)nc2n(C2CCCC2)c1=O [Palbociclib] + Cc1c2c(nn1C)CSCc1cc(n(C)n1)CSc1cc(c3ccccc3c1)OCCCc1c(C(=O)O)n(C)c3c-2c(Cl)ccc13 [AZD5991] (first compound max 10 µM, 7x7, partner max 1 µM) | 0.48 | 0.237 | 0.0059 | -0.0315 | -0.0244 | -0.098 | -0.0106 | -0.0784 | 0.0082 | -0.0841 | -0.0444 | -0.0305 | -0.0173 | -0.061 | 0.0154 | 0.0337 | -0.0683 | 0.0033 | -0.0488
6 | CC(=O)c1c(C)c2cnc(Nc3ccc(N4CCNCC4)cn3)nc2n(C2CCCC2)c1=O [Palbociclib] + CC1(C)CCC(CN2CCN(c3ccc(C(=O)NS(=O)(=O)c4ccc(NCC5CCOCC5)c([N+](=O)[O-])c4)c(Oc4cnc5[nH]ccc5c4)c3)CC2)=C(c2ccc(Cl)cc2)C1 [Venetoclax] (first compound max 10 µM, 7x7, partner max 1 µM) | 0.336 | 0.241 | -0.0205 | -0.0114 | 0.0032 | -0.0079 | -0.0198 | -0.0608 | -0.0214 | 0.0133 | -0.0585 | -0.024 | -0.0614 | -0.0541 | 0.083 | -0.0392 | -0.0053 | -0.0265 | -0.0363
7 | NC1(C(=O)N[C@@H](CCO)c2ccc(Cl)cc2)CCN(c2ncnc3[nH]ccc23)CC1 [Capivasertib] + CC(=O)c1c(C)c2cnc(Nc3ccc(N4CCNCC4)cn3)nc2n(C2CCCC2)c1=O [Palbociclib] (first compound max 10 µM, 7x7, partner max 10 µM) | 0.572 | 0.566 | 0.0816 | -0.0688 | 0.0114 | -0.0456 | 0.0388 | -0.0706 | 0.0437 | 0.0215 | -0.0346 | -0.0282 | -0.0759 | -0.0098 | 0.0824 | -0.0312 | 0.0245 | -0.0005 | -0.0084
8 | CC(=O)c1c(C)c2cnc(Nc3ccc(N4CCNCC4)cn3)nc2n(C2CCCC2)c1=O [Palbociclib] + CN(CC[C@H](CSC1=CC=CC=C1)NC2=C(C=C(C=C2)S(=O)(=O)NC(=O)C3=CC=C(C=C3)N4CCC(CC4)[C@H](C5=CC=CC=C5C6=CC=C(C=C6)Cl)O)S(=O)(=O)C(F)(F)F)CCO [AZD4320] (first compound max 10 µM, 7x7, partner max 1 µM) | 0.53 | 0.994 | – | -0.0621 | -0.0409 | -0.0292 | -0.0307 | -0.0489 | -0.0712 | -0.0566 | – | 0.0108 | – | – | – | – | -0.0446 | – | -0.0467
